Article PMC12583704 (Signal Transduction and Targeted Therapy, 2025)
Several values for one entry are separate records, joined by “and”; a condition that tells them apart may be missing. Equal entries are not always repeated.

Experiment: Phase 1 study NCT03594422: adverse events graded by NCI CTCAE v4.03
Assay type: in vivo, human
Protocol: Part 1 was a dose-escalation study to determine the recommended phase 2 dose (RP2D) in solid tumors. […] The initial design was a 3 + 3 dose escalation from 20 mg, but the protocol was amended to randomly enroll and assign patients to starting doses of 30, 40, and 50 mg on the basis of safety data acquired in the CML trial.[20] […] An interactive web response system was used for randomization. Part 2 was a nonrandomized study focusing on patients with SDH-deficient GISTs. […] On the basis of preliminary data from adult patients, adolescent patients with advanced wild-type GISTs were also included in Part 2. The dosage for adolescents was adjusted according to their body weights.
AEs were evaluated at each follow-up visit: on Days 1, 8, 15, and 22 during Cycles 1 and 2; and on Days 1 and 15 in Cycle 3 and all subsequent cycles, up to 30 days after the final dose. All AEs were graded according to the National Cancer Institute Common Terminology Criteria for Adverse Events v4.03. Clinical laboratory investigations for routine blood examinations and serum chemistry parameters were performed during every cycle (on Day 1), during Cycles 1 and 2 (on Days 8, 15, and 22), and 30 days after the last dose of treatment. Urinalysis, coagulation, cardiac troponin I/T, lipase, amylase, and electrocardiographic evaluations were conducted at baseline; during Cycles 1 and 2 (on Days 1 and 15); during Cycles 3, 5, 7, and 9; every three cycles after Cycle 9 (on Day 1); and 14 days after the last dose of treatment. All patients underwent tumor imaging for response assessment via computed tomography or magnetic resonance imaging at screening and every two cycles (8 weeks) until progression or discontinuation. Target and nontarget lesions were assessed per the Response Evaluation Criteria in Solid Tumors version 1.1 (RECIST v1.1).

SMILES: Cc1ccc(C(=O)Nc2ccc(CN3CCN(C)CC3)c(C(F)(F)F)c2)cc1C#Cc1cnc2[nH]ncc2c1 [Olverembatinib, 3-[(1H-pyrazolo[3,4-b]pyridin-5-yl)ethynyl]-4-methyl-N-{4-[(4-methylpiperazin-1-yl)methyl]-3-(trifluoromethyl)phenyl]benzamide]
- TRAE: Hypoalbuminemia (50 mg (n = 16), Grade 3-5): 0 n (%)
- TRAE: Leukocyte count increased (50 mg (n = 16), Grade 3-5): 0 n (%)
- TRAE: Melanocytic nevus (50 mg (n = 16), Grade 3-5): 0 n (%)
- TRAE: Neutrophil count increased (50 mg (n = 16), Grade 3-5): 0 n (%)
- TRAE: Platelet count increased (50 mg (n = 16), Grade 3-5): 0 n (%)
- TRAE: Pyrexia (50 mg (n = 16), Grade 3-5): 0 n (%)
- TEAE: Abdominal pain (Total (n = 66), Any grade): 15 (22.7) n (%)
- TEAE: Alanine aminotransferase increased (Total (n = 66), Any grade): 25 [37.9%] n (%) and 25 (37.9) n (%)
- TEAE: Anemia (Total (n = 66), Any grade): 31 [47.0%] n (%) and 31 (47.0) n (%)
- TEAE: Aspartate aminotransferase increased (Total (n = 66), Any grade): 31 [47%] n (%) and 31 (47.0) n (%)
- TEAE: C-reactive protein increased (Total (n = 66), Any grade): 15 (22.7) n (%)
- TEAE: Constipation (Total (n = 66), Any grade): 27 [40.9%] n (%) and 27 (40.9) n (%)
- TEAE: Fatigue (Total (n = 66), Any grade): 20 [30.3%] n (%) and 20 (30.3) n (%)
- TEAE: Hyperuricemia (Total (n = 66), Any grade): 31 (47.0) n (%)
- TEAE: Hypoalbuminemia (Total (n = 66), Any grade): 14 (21.2) n (%)
- TEAE: Leukocyte count increased (Total (n = 66), Any grade): 32 [48.5%] n (%) and 32 (48.5) n (%)
- TEAE: Melanocytic nevus (Total (n = 66), Any grade): 17 (25.8) n (%)
- TEAE: Neutrophil count increased (Total (n = 66), Any grade): 25 [37.9%] n (%) and 25 (37.9) n (%)
- TEAE: Pyrexia (Total (n = 66), Any grade): 28 [42.4%] n (%) and 28 (42.4) n (%)
- TEAEs (Total (n = 66), Any grade): 66 (100.0%) n (%) and 66 (100.0) n (%)
- TRAE: ALT increased (Total (n = 66), Any grade): 20 (30.3) n (%)
- TRAE: AST increased (Total (n = 66), Any grade): 23 (34.8) n (%)
- TRAE: Anemia (Total (n = 66), Any grade): 9 (13.6) n (%)
- TRAE: Blood creatinine increased (Total (n = 66), Any grade): 9 (13.6) n (%)
- TRAE: Constipation (Total (n = 66), Any grade): 23 (34.8) n (%)
- TRAE: Fatigue (Total (n = 66), Any grade): 18 (27.3) n (%)
- TRAE: Hypoalbuminemia (Total (n = 66), Any grade): 10 (15.2) n (%)
- TRAE: Leukocyte count increased (Total (n = 66), Any grade): 27 (40.9) n (%)
- TRAE: Melanocytic nevus (Total (n = 66), Any grade): 15 (22.7) n (%)
- TRAE: Neutrophil count increased (Total (n = 66), Any grade): 22 (33.3) n (%)
- TRAE: Platelet count increased (Total (n = 66), Any grade): 7 (10.6) n (%)
- TRAE: Pyrexia (Total (n = 66), Any grade): 19 (28.8) n (%)
- TEAE: Abdominal pain (Total (n = 66), Grade 3-5): 1 (1.5) n (%)
- TEAE: Alanine aminotransferase increased (Total (n = 66), Grade 3-5): 2 (3.0) n (%)
- TEAE: Anemia (Total (n = 66), Grade 3-5): 4 (6.1) n (%)
- TEAE: Aspartate aminotransferase increased (Total (n = 66), Grade 3-5): 2 (3.0) n (%)
- TEAE: C-reactive protein increased (Total (n = 66), Grade 3-5): 0 n (%)
- TEAE: Constipation (Total (n = 66), Grade 3-5): 0 n (%)
- TEAE: Fatigue (Total (n = 66), Grade 3-5): 1 (1.5) n (%)
- TEAE: Hyperuricemia (Total (n = 66), Grade 3-5): 1 (1.5) n (%)
- TEAE: Hypoalbuminemia (Total (n = 66), Grade 3-5): 0 n (%)
- TEAE: Leukocyte count increased (Total (n = 66), Grade 3-5): 0 n (%)
- TEAE: Melanocytic nevus (Total (n = 66), Grade 3-5): 0 n (%)
- TEAE: Neutrophil count increased (Total (n = 66), Grade 3-5): 0 n (%)
- TEAE: Pyrexia (Total (n = 66), Grade 3-5): 0 n (%)
- TEAEs (Total (n = 66), Grade 3-5): 26 (39.4) n (%)
- TRAE: ALT increased (Total (n = 66), Grade 3-5): 1 (1.5) n (%)
- TRAE: AST increased (Total (n = 66), Grade 3-5): 1 (1.5) n (%)
- TRAE: Anemia (Total (n = 66), Grade 3-5): 0 n (%)
- TRAE: Blood creatinine increased (Total (n = 66), Grade 3-5): 0 n (%)
- TRAE: Constipation (Total (n = 66), Grade 3-5): 0 n (%)
- TRAE: Fatigue (Total (n = 66), Grade 3-5): 1 (1.5) n (%)
- TRAE: Hypoalbuminemia (Total (n = 66), Grade 3-5): 0 n (%)
- TRAE: Leukocyte count increased (Total (n = 66), Grade 3-5): 0 n (%)
- TRAE: Melanocytic nevus (Total (n = 66), Grade 3-5): 0 n (%)
- TRAE: Neutrophil count increased (Total (n = 66), Grade 3-5): 0 n (%)
- TRAE: Platelet count increased (Total (n = 66), Grade 3-5): 0 n (%)
- TRAE: Pyrexia (Total (n = 66), Grade 3-5): 0 n (%)
- patients who experienced grade ≥3 TRAEs (all 66 patients): 13.6%
- patients who experienced treatment-related AEs (TRAEs) (all 66 patients): 93.9%
- treatment-related serious AEs (all 66 patients): 7.6%
- Treatment-related SAE (all patients, Population, N 68): 5 (7.4) n (%)
- Treatment-related SAE: Anemia (all patients, Population, N 68): 1 (1.5) n (%)
- Treatment-related SAE: Arteriosclerosis coronary artery (all patients, Population, N 68): 1 (1.5) n (%)
- Treatment-related SAE: Intestinal obstruction (all patients, Population, N 68): 2 (2.9) n (%)
- Treatment-related SAE: Leukemoid reaction (all patients, Population, N 68): 1 (1.5) n (%)
- RP2D (based on safety data from a previous phase 1 study and randomization in Part 1): 40 mg QOD
- treatment discontinuation because of AEs (in vivo): no patients discontinued treatment because of AEs
